The record followed here is US7714151B2, “Aminated isoflavonoid derivatives and uses thereof” (Novogen Research Pty Ltd, priority 2002, dated 2010).

Experiment [1] relates to testosterone-induced LNCaP proliferation. Description: Androgen inhibition study: testosterone-induced LNCaP proliferation. The experiment is classed as cell-based, human. Conditions: for IC50: Homo sapiens, LNCaP; for fold better than Cpd. 1 at inhibiting testosterone-induced proliferation: relative to Cpd. 1. How it is done: The method of Negri-Cesi and Motta (1994) and Negri-Cesi et al. (1999) was followed. Briefly, LNCaP cells were cultured in RPMI supplemented with 10% fetal calf serum and 2 mM L-glutamine at 37° C. under 5% CO2. At day 0 a subconfluent LNCaP culture flask (80%) were harvested by trypsinisation, washed, resuspended in RPMI media completed with charcoal stripped fetal calf serum (RPMIi) and seeded into 12 well plates at 30,000 cells per well (15,000 cells/mL). The plates were cultured at 37° C. with 5% CO2 for 48 hours. On day 2, spent media was carefully aspirated from all plates and then replenished with 2 ml RPMIi containing either testosterone (0.5 pM) as positive control, testosterone plus finasteride (1 uM) as inhibitor control and vehicle as growth control (equivalent concentration of DMSO). Test plates were treated as described above; only serial dilutions of test compounds prepared in RPMIi were used. Concentrations of test compound were chosen based on their cytotoxicity profile as determined in the cell cytotoxicity analysis methods section above i.e. the top concentration used in the LNCaP proliferation assay was determined as the concentration at which cells first appear close to 100% viable along the cytotoxicity curve. This concentration was chosen to ensure that any inhibition of proliferation imparted by the test agent was due to the inhibition of 5′AR and not due to direct killing of the cells. It is important not to disturb cell monolayer during the addition of treatments. On days 5 and 8 the process followed on day 2 was repeated for all plates. On day 11 spent media was aspirated from all wells, cells were washed gently with PBS (500 μl), trypsinised and the cells in each well counted using a haemocytometer. The average cell count and standard deviation was calculated and the result expressed as the % inhibition of testosterone-induced proliferation in comparison with vehicle control.

A further experiment has as its target T1, thromboxane synthase (Homo sapiens, UniProt P24557).
T1 construct: endogenous in cells; host or cells: human peripheral blood monocytes (elutriated from buffy coat), LPS-stimulated
T1 sequence (P24557 1-533): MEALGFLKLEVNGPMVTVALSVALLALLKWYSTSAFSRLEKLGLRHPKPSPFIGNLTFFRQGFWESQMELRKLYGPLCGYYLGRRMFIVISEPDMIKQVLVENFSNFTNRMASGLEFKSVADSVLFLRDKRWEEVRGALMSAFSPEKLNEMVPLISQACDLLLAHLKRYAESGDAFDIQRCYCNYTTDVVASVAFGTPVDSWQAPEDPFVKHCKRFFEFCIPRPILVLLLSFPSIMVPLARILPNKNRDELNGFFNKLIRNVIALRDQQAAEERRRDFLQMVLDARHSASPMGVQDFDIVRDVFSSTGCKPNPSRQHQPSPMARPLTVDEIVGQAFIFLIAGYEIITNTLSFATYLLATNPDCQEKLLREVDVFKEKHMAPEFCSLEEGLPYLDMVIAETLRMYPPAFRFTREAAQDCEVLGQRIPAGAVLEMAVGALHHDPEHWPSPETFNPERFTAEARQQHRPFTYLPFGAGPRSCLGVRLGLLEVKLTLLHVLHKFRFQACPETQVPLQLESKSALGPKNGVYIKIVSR
The experiment is described as follows: Thromboxane synthase inhibition screening assay in LPS-stimulated monocytes (TXB2 radioimmunoassay). The experiment is classed as cell-based. How it is done:
(§1) Human buffy coats were obtained from the Red Cross Blood Bank. Buffy coat (50 ml) was diluted 1:2 with sterile phosphate buffered saline (PBS), overlayed onto Lymphoprep density gradient medium and centrifuged at 800 g for 20 min. The mononuclear cell (MNC) layer was removed and washed with PBS and monocyte enriched cells were prepared from MNC by counter-current centrifugal elutriation. Monocytes were then resuspended in RPMI tissue culture medium with 10% foetal calf serum at 1.5×10^6 cells/ml. Test analogues were prepared in DMSO and incubated with monocytes at 37° for 30 min at either 10 or 100 μM. After the 30 min pre-incubation, bacterial lipopolysaccharide (LPS) was added (200 ng/ml) and cells were incubated for a further 18 h at 37° in 5% CO2. After centrifugation, cell-free supernatants were then removed and assayed for either prostaglandin or thromboxane production, as determined by radioimmunoassay. Because TXA2 is labile in aqueous medium, TXB2, the stable hydrolysis product of TXA2, was measured. For each dose (0, 10, 100 μM), incubations were performed in triplicate. Results are expressed as mean±SD, n=3. ANOVA followed by Newman-Keuls multiple comparisons test was used to examine differences between doses and the control values.

Experiment [2] has as its system NCI-H460 (large cell lung Ca). The experiment is described as follows: Cell cytotoxicity analysis (MTT), NCI-H460. The experiment is classed as cell-based. Conditions: Homo sapiens. An excerpt:
(§2) The method of Alley et al. (1988) was followed. Briefly, prior to cytotoxicity screening a growth curve was constructed for each tumour line to be screened to determine growth kinetics, optimal seeding density to yield logarithmic growth over five days, and the corresponding lag time. Spent culture medium was aspirated from a sub-confluent adherent monolayer culture (T-75), the cells trypsinised and resuspended in a minimal volume of culture medium. After counting cells, a 96-well plate was seeded at an appropriate density (100 μl) to yield optimal growth parameters and the plate was then incubated at 37° C. under 5% CO2. After the pre-determined lag-time the plate was treated with either vehicle (negative control) or serial dilutions of the test compound prepared in culture medium, and then incubated for a further five days. MTT (0.5 mg/ml) prepared in PBS was added to all wells and incubated at 37° C. for ˜3 hr. Spent medium was then carefully aspirated and DMSO (150 μt) was added to solubilise cells and the reduced formazan. Absorbance was then read on a SpectraMax plate reader at 570 nm and viable cells in treated plates were expressed as a percentage of cells in control plates.

A further experiment concerns COX. The experiment is described as follows: COX inhibition screening assay in LPS-stimulated monocytes (prostaglandin radioimmunoassay). The experiment is classed as cell-based. Conditions: 10 μM, human monocytes. How it is done: as §1
In experiment [3] the test system is PC3 (AR negative prostate Ca). The experiment is described as follows: Cell cytotoxicity analysis (MTT), PC3. The format is cell-based. As to conditions: Homo sapiens, 120 h, PC3, five days.
Source text: as §2

For experiment [4], the system named is LNCaP (AR positive Prostate Ca). Description: Cell cytotoxicity analysis (MTT), LNCaP. The format is cell-based. As to conditions: Homo sapiens.
Source text: as §2

In experiment [5] the test system is DU145 (AR negative prostate Ca). Description: Cell cytotoxicity analysis (MTT), DU145. The format is cell-based. As to conditions: Homo sapiens.
Source text: as §2

Another experiment deals with all cell lines tested. The experiment is described as follows: Cell cytotoxicity analysis (MTT), statements over the cell lines tested. The format is cell-based, human. Conditions: for overall cell killing activity against all cell lines tested: comparison of Cpd. 1, 2 and 3.
Source text: as §2

Experiment [6] concerns MDA-MB-468 (ER negative breast Ca). Description: Cell cytotoxicity analysis (MTT), MDA-MB-468. As to conditions: Homo sapiens, 120 h, MDA-MB-468, five days. The format is cell-based.
Source text: as §2

Setting [7] is: 120 h, NCI-H460, five days, MTT, read-out: Cytotoxicity NCI-H460 Avg.
Where [8] appears, read: 120 h, LNCaP, five days, MTT, read-out: Cytotoxicity LNCaP Avg.
The mark [9] stands for this setting: 120 h, DU-145, five days, MTT, read-out: Cytotoxicity DU-145 Avg.
[10] abbreviates: read-out: IC50 inhibition of testosterone-induced LNCaP proliferation.
Where [11] appears, read: DU-145, read-out: IC50 against DU-145.
Where [12] appears, read: read-out: IC50 inhibition of testosterone-induced proliferation.

Where two headings read alike, the source gives them in different places.

Consider `CC(C)(C)NC(=O)[C@H]1CC[C@H]2[C@@H]3CC[C@H]4NC(=O)C=C[C@]4(C)[C@H]3CC[C@]12C` [finasteride, reference compound], for which the “blocking of testosterone-induced proliferation” value in experiment [1] (1 μM, inhibitor control) is listed as “potently blocked”.

As to `O=[N+]([O-])c1ccc(NN=C2c3ccc(O)cc3OCC2c2ccc(O)cc2)cc1` (stereo not shown) [Cpd. 2], the inhibition (commonly the relative decrease from the control value, in per cent) at 10 µM at thromboxane synthase stood at 27%. The IC50 in experiment [2] (setting [7]) was 32.7 µM; in experiment [3] it was 44.8 µM; in experiment [4] (setting [8]), 50.9 µM; in experiment [5] (setting [9]), 46 µM; in experiment [6], 26.1 µM; in experiment [1] (setting [10]), less than 35 nM. Also, the IC50 in experiment [1] (read-out: IC50 inhibition of testosterone-induced proliferation (nM)) was less than 37 nM. For the same compound, the “inhibition of COX activity” value with COX is 77%. For the same compound, in the experiment with all cell lines tested, the “overall cell killing activity against all cell lines tested” value is “lowest activity”. Besides, the “fold better than Cpd. 1 at inhibiting testosterone-induced proliferation” value in [1] is listed as approximately 60 fold.

Take `Oc1ccc(C2COc3cc(O)ccc3C2=NNc2ccccc2)cc1` (stereo not shown) [Cpd. 1]: the inhibition at 10 µM against thromboxane synthase is 33%. The IC50 in experiment [2] (setting [7]) was 27.6 µM; in experiment [3], 33.9 µM; in experiment [4] (setting [8]), 16.2 µM; in experiment [4] (read-out: IC50 against LNCaP) it was 16.2 µM; in experiment [5] (setting [9]) it was 13.8 µM; in experiment [5] (setting [11]), 13.8 µM. For the same compound, the IC50 in the experiment with all cell lines tested (Homo sapiens, cell lines other than LNCaP and DU-145, read-out: Modest activity against the other cell lines tested) is more than 20 µM; in experiment [6], 34.9 µM; in experiment [1] (setting [10]), 2250 nM; in [1] (setting [12]), 2250 nM. Also, the “inhibition of COX activity” value in the experiment with COX is given as 100%.

On to `Cc1ccc(NN=C2c3ccc(O)cc3OCC2c2ccc(O)cc2)cc1` (stereo not shown) [Cpd. 3], for which, at thromboxane synthase, the inhibition at 10 µM stood at 60%. The IC50 in [2] (NCI-H460, read-out: activity against NCI-H460) was 13.3 µM; in experiment [3] it was 27.9 µM; in experiment [4] (setting [8]), 16.2 µM; in experiment [4] (read-out: IC50 against LNCaP), 16.3 µM; in experiment [5] (setting [9]), 19.1 µM; in [5] (setting [11]) it was 19.2 µM. The results for the IC50 in [6], in experiment [1] (setting [10]) and in experiment [1] (setting [12]) were 22.4 µM, 680 nM and 680 nM, respectively. Further, the “inhibition of COX activity” value in the experiment with COX amounted to 100%. In addition, the “overall cell killing activity against all cell lines tested” value with all cell lines tested is listed as “best overall cell killing activity”. For the same compound, the “fold better than Cpd. 1 at inhibiting testosterone-induced proliferation” value in [1] is 3 fold.
